Results: PubChem BioAssay (NCI)
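Dose response: 5 concentrations. Exposure: 48 h. Format: 96-well plates. Endpoint: linear interpolation; highest concentration if not reached. GI50 = concentration required for 50% inhibition of growth. TGI denotes the concentration required for complete inhibition of growth.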

Tests used:
Assay in all cases: growth of human tumour cells (NCI), 48 h
[1] = test system: U251 CNS
[2] = test system: CAKI-1 renal
[3] = test system: SF-295 CNS
[4] = test system: RXF 393 renal
[5] = test system: COLO 205 colon
[6] = test system: SK-MEL-5 melanoma
[7] = test system: UACC-62 melanoma
[8] = test system: MDA-MB-231 breast
[9] = test system: 786-0 renal
[10] = test system: A498 renal
[11] = test system: CCRF-CEM leukemia
[12] = test system: SK-OV-3 ovarian
[13] = test system: LOX IMVI melanoma
[14] = test system: RPMI-8226 leukemia
[15] = test system: HCT-116 colon
[16] = test system: NCI/ADR-RES ovarian
[17] = test system: MALME-3M melanoma
[18] = test system: HOP-92 NSCLC
[19] = test system: UACC-257 melanoma
[20] = test system: UO-31 renal
[21] = test system: SR leukemia
[22] = test system: BT-549 breast
[23] = test system: OVCAR-3 ovarian
[24] = test system: SW-620 colon
[25] = test system: SN12C renal
[26] = test system: MCF7 breast
[27] = test system: MOLT-4 leukemia
[28] = test system: ACHN renal
[29] = test system: HCT-15 colon
[30] = test system: HT29 colon
[31] = test system: DU-145 prostate
[32] = test system: NCI-H460 lung
[33] = test system: SF-539 CNS
[34] = test system: EKVX NSCLC
[35] = test system: NCI-H23 lung
[36] = test system: HOP-62 NSCLC
[37] = test system: SK-MEL-28 melanoma
[38] = test system: A549 NSCLC
[39] = test system: T-47D breast
[40] = test system: NCI-H522 lung
[41] = test system: OVCAR-5 ovarian
[42] = test system: TK-10 renal
[43] = test system: KM12 colon
[44] = test system: OVCAR-8 ovarian
[45] = test system: OVCAR-4 ovarian
[46] = test system: IGROV1 ovarian
[47] = test system: SK-MEL-2 melanoma
[48] = test system: MDA-MB-435
[49] = test system: SNB-75 CNS
[50] = test system: HS 578T breast
[51] = test system: SF-268 CNS
[52] = test system: NCI-H226 lung
[53] = test system: HL-60(TB) leukemia
[54] = test system: K-562 leukemia
[55] = test system: PC-3 prostate
[56] = test system: HCC-2998 colon
[57] = test system: SNB-19 CNS
[58] = test system: M14 melanoma

`CCOC(=O)c1c(NC(=O)c2ccc(C(F)(F)F)cc2)sc2c(CN3CCN(C)CC3)c(O)ccc12` gave a GI50 [1] of 1790 nM, a TGI [1] of 3370 nM and a GI50 [2] of 1650 nM. It also gave a TGI [2] of 3160 nM, a GI50 [3] of 1940 nM and a TGI [3] of 3980 nM. It also gave a GI50 [4] of 1590 nM, a TGI [4] of 3810 nM and a GI50 [5] of 1870 nM. It also gave a TGI [5] of 3760 nM, a GI50 [6] of 3030 nM and a TGI [6] of 10100 nM. For the same compound, the GI50 [7] was 1790 nM, the TGI [7] was 3590 nM and the GI50 [8] was 1860 nM. The TGI [8] was 3560 nM, the GI50 [9] was 1550 nM and the TGI [9] was 3320 nM. The GI50 [10] was 1630 nM, the TGI [10] was 3300 nM and the GI50 [11] was 1950 nM. It also gave a TGI [11] of 4770 nM, a GI50 [12] of 1930 nM and a TGI [12] of 4210 nM. For the same compound, the GI50 [13] was 1780 nM, the TGI [13] was 3190 nM and the GI50 [14] was 1730 nM. It also gave a TGI [14] of 3950 nM, a GI50 [15] of 1680 nM and a TGI [15] of 3340 nM. The GI50 [16] was 1920 nM, the TGI [16] was 3830 nM and the GI50 [17] was 1990 nM. The TGI [17] was 4280 nM, the GI50 [18] was 1360 nM and the TGI [18] was 3110 nM. It also gave a GI50 [19] of 2120 nM, a TGI [19] of 4980 nM and a GI50 [20] of 1510 nM. The TGI [20] was 2950 nM, the GI50 [21] was 1110 nM and the TGI [21] was 3420 nM. The GI50 [22] was 1850 nM, the TGI [22] was 4150 nM and the GI50 [23] was 1750 nM. For the same compound, the TGI [23] was 3170 nM, the GI50 [24] was 1710 nM and the TGI [24] was 3200 nM. The GI50 [25] was 1760 nM, the TGI [25] was 3440 nM and the GI50 [26] was 1820 nM. For the same compound, the TGI [26] was 3650 nM, the GI50 [27] was 1740 nM and the TGI [27] was 4000 nM. The GI50 [28] was 1810 nM, the TGI [28] was 3210 nM and the GI50 [29] was 1740 nM. It also gave a TGI [29] of 3500 nM, a GI50 [30] of 1830 nM and a TGI [30] of 3680 nM. The GI50 [31] was 1970 nM, the TGI [31] was 3790 nM and the GI50 [32] was 1770 nM. The TGI [32] was 3380 nM, the GI50 [33] was 1630 nM and the TGI [33] was 3020 nM. It also gave a GI50 [34] of 2620 nM, a TGI [34] of 8150 nM and a GI50 [35] of 2110 nM. It also gave a TGI [35] of 4730 nM, a GI50 [36] of 1820 nM and a TGI [36] of 3990 nM. It also gave a GI50 [37] of 1730 nM, a TGI [37] of 3160 nM and a GI50 [38] of 1850 nM. The TGI [38] was 3850 nM, the GI50 [39] was 1840 nM and the TGI [39] was 4540 nM. For the same compound, the GI50 [40] was 2190 nM, the TGI [40] was 5560 nM and the GI50 [41] was 1770 nM. It also gave a TGI [41] of 3190 nM, a GI50 [42] of 1620 nM and a TGI [42] of 3160 nM. It also gave a GI50 [43] of 1790 nM, a TGI [43] of 3340 nM and a GI50 [44] of 2140 nM. The TGI [44] was 4770 nM, the GI50 [45] was 2050 nM and the TGI [45] was 4430 nM. It also gave a GI50 [46] of 1790 nM, a TGI [46] of 3470 nM and a GI50 [47] of 2210 nM. It also gave a TGI [47] of 5000 nM, a GI50 [48] of 1730 nM and a TGI [48] of 3120 nM. For the same compound, the GI50 [49] was 2050 nM, the TGI [49] was 4920 nM and the GI50 [50] was 1990 nM. It also gave a TGI [50] of 4520 nM, a GI50 [51] of 1870 nM and a TGI [51] of 4010 nM. It also gave a GI50 [52] of 1950 nM, a TGI [52] of 4070 nM and a GI50 [53] of 1780 nM. For the same compound, the TGI [53] was 3940 nM, the GI50 [54] was 1130 nM and the TGI [54] was 5860 nM. For the same compound, the GI50 [55] was 1690 nM, the TGI [55] was 3220 nM and the GI50 [56] was 1710 nM. For the same compound, the TGI [56] was 3230 nM, the GI50 [57] was 1790 nM and the TGI [57] was 3480 nM.

`Cc1cccc2sc(/N=C(\N)C(Br)Br)nc12` was tested, and the GI50 [1] was 1310 nM, the TGI [1] was 3300 nM and the GI50 [2] was 820 nM. It also gave a TGI [2] of 2100 nM, a GI50 [3] of 3650 nM and a TGI [3] of 15500 nM. The GI50 [4] was 1320 nM, the TGI [4] was 3320 nM and the GI50 [5] was 1250 nM. The TGI [5] was 2930 nM, the GI50 [6] was 3030 nM and the TGI [6] was 9420 nM. The GI50 [7] was 2540 nM, the TGI [7] was 12000 nM and the GI50 [8] was 2110 nM. The TGI [8] was 7820 nM, the GI50 [9] was 1810 nM and the TGI [9] was 4140 nM. For the same compound, the GI50 [10] was 12500 nM, the TGI [10] was 25100 nM and the GI50 [11] was 2670 nM. The TGI [11] was 8120 nM, the GI50 [12] was 4000 nM and the TGI [12] was 16000 nM. It also gave a GI50 [13] of 158 nM, a TGI [13] of 345 nM and a GI50 [14] of 2120 nM. It also gave a TGI [14] of 9510 nM, a GI50 [15] of 520 nM and a TGI [15] of 1990 nM. It also gave a GI50 [16] of 1670 nM, a TGI [16] of 7100 nM and a GI50 [17] of 1640 nM. The TGI [17] was 3660 nM, the GI50 [18] was 1540 nM and the TGI [18] was 6390 nM. It also gave a GI50 [19] of 2900 nM, a TGI [19] of 11500 nM and a GI50 [20] of 1230 nM. It also gave a TGI [20] of 7530 nM, a GI50 [21] of 2010 nM and a TGI [21] of 7450 nM. The GI50 [22] was 1660 nM, the TGI [22] was 3550 nM and the GI50 [23] was 1680 nM. It also gave a TGI [23] of 4380 nM, a GI50 [24] of 659 nM and a TGI [24] of 2410 nM. It also gave a GI50 [25] of 1680 nM, a TGI [25] of 3920 nM and a GI50 [26] of 819 nM. For the same compound, the TGI [26] was 3800 nM, the GI50 [27] was 1720 nM and the TGI [27] was 11500 nM. It also gave a GI50 [28] of 1070 nM, a TGI [28] of 3860 nM and a GI50 [29] of 1250 nM. For the same compound, the TGI [29] was 6810 nM, the GI50 [30] was 1180 nM and the TGI [30] was 3530 nM. The GI50 [31] was 1940 nM, the TGI [31] was 11100 nM and the GI50 [32] was 654 nM. For the same compound, the TGI [32] was 2590 nM, the GI50 [33] was 1420 nM and the TGI [33] was 3340 nM. It also gave a GI50 [34] of 3610 nM, a TGI [34] of 14200 nM and a GI50 [36] of 2700 nM. The TGI [36] was 12100 nM, the GI50 [37] was 1910 nM and the TGI [37] was 5260 nM. The GI50 [58] was 1390 nM, the TGI [58] was 3710 nM and the GI50 [38] was 2730 nM. It also gave a TGI [38] of 10400 nM, a GI50 [39] of 2540 nM and a TGI [39] of 12800 nM. It also gave a GI50 [40] of 1540 nM, a TGI [40] of 3080 nM and a GI50 [41] of 2520 nM. The TGI [41] was 7500 nM, the GI50 [42] was 4300 nM and the TGI [42] was 15500 nM. The GI50 [43] was 1990 nM, the TGI [43] was 11800 nM and the GI50 [44] was 2110 nM. For the same compound, the TGI [44] was 7270 nM, the GI50 [45] was 2000 nM and the TGI [45] was 6500 nM. It also gave a GI50 [46] of 1620 nM, a TGI [46] of 3750 nM and a GI50 [47] of 2450 nM. It also gave a TGI [47] of 7500 nM, a GI50 [48] of 1330 nM and a TGI [48] of 2920 nM. The GI50 [49] was 2010 nM, the TGI [49] was 10600 nM and the GI50 [50] was 2320 nM. The TGI [50] was 9790 nM, the GI50 [51] was 2240 nM and the TGI [51] was 13100 nM. It also gave a GI50 [52] of 1820 nM, a TGI [52] of 4130 nM and a GI50 [53] of 1830 nM. For the same compound, the TGI [53] was 7130 nM, the GI50 [54] was 1070 nM and the TGI [54] was 12800 nM. The GI50 [55] was 1930 nM, the TGI [55] was 6800 nM and the GI50 [56] was 1590 nM. The TGI [56] was 3450 nM, the GI50 [57] was 3230 nM and the TGI [57] was 15100 nM.
